In patent US11102978B2, “Herbicide combination” (priority 2016, dated 2021):
Where a name gives a salt, the structure may show the parent alone.

Experiments:
Type in all cases: in vivo
[1] = test system: Viola arvensis (weed code—VIOAR); test: Field trial, weed control of Viola arvensis in wheat; conditions: in Triticum aesti
Procedure: (§1) Studies were conducted to compare the weed controlling activity of the combination of bensulfuron methyl, metsulfuron methyl with herbicides selected from the classes of synthetic auxins, photosystem II inhibitors, very long chain fatty acid inhibitor, carotene biosynthesis inhibitor and compare its observed efficacy with the “expected” efficacy when bensulfuron methyl and metsulfuron methyl and select individual herbicides were used to treat both dicotyledonous and monocotyledonous weeds. Any difference between the observed and “expected” efficacy could be attributed to synergy between the two compounds in the control of […] weeds. The expected efficacy of a combination of bensulfuron methyl, metsulfuron methyl with herbicides selected from the classes of synthetic auxins, photosystem II inhibitors, very long chain fatty acid inhibitor, carotene biosynthesis inhibitor was calculated using the well-established Colby method.
(§2) In the Colby method, the expected (or predicted) response of a combination of herbicides is calculated by taking the product of the observed response for each individual component of the combination when applied alone divided by 100 and subtracting this value from the sum of the observed response for each component when applied alone. An unexpected enhancement in efficacy of the combination is then determined by comparing the observed response of the combination to the expected (or predicted) response as calculated from the observed response of each individual component alone. […]
(§3) The weed control activity of the individual herbicides of the invention and their combinations were evaluated on weeds such as Viola arvensis (weed code—VIOAR), Veronica persica (weed code—VERPE), Papaver rhoeas (weed code: PAPRH), Galium aparine (weed code—GALAP), Matricaria recutita weed code—MATCH), Veronica hederifolia (weed code—VERHE) and Viola arvensis (weed code—VIOAR.). […]

[2] = test system: Roemeria hybrida (Weed code—is ROEHY); test: Field trial, weed control of Roemeria hybrida in wheat; conditions: in Triticum aesti, 15 DAA; dose 0.1 Kg/ha (bensulfuron methyl + metsulfuron methyl), 2.6 l/ha (2,4D dimethylamine salt), 0.1 Kg/ha + 2.6 l/ha (mix)
Procedure: as §1
(§4) In the Colby method, the expected (or predicted) response of a combination of herbicides is calculated by taking the product of the observed response for each individual component of the combination when applied alone divided by 100 and subtracting this value from the sum of the observed response for each component when applied alone. […]

[3] = test system: Senecio vulgaris (weed code—SENVU); test: Field trial, weed control of Senecio vulgaris in wheat; conditions: in Triticum aesti, 9 DAA; dose 0.1 Kg/ha (bensulfuron methyl + metsulfuron methyl), 2.6 l/ha (2,4D dimethylamine salt), 2.6 l/ha + 0.1 Kg/ha (mix)
Procedure: as §1, §4

[4] = test system: Papaver rhoeas (weed code—PAPRH); test: Field trial, weed control of Papaver rhoeas in wheat; conditions: in Triticum aesti, 12 DAA
Procedure: as §1
In the Colby method, the expected (or predicted) response of a combination of herbicides is calculated by taking the product of the observed response for each individual component of the combination when applied alone divided by 100 and subtracting this value from the sum of the observed response for each component when applied alone. An unexpected enhancement in efficacy of the combination is then determined by comparing the observed response of the combination to the expected (or predicted) response as calculated from the observed response of each individual component alone. If the observed response of the combination is greater than the expected (or predicted) response, or stated conversely, if the difference between the observed and expected response is greater than zero, then the combination is said to be synergistic or unexpectedly effective. (Colby, S. R., Weeds, 1967(15), p. 20-22) The Colby method requires only a single dose of each herbicide applied alone and the mixture of both doses. The formula used to calculate the expected efficacy (EE) which was compared with the observed efficacy (OE) to determine the efficacy of the present invention is explained hereinbelow: EE=(B efficacy+A efficacy−(B efficacy×A efficacy)/100)
The weed control activity of the individual herbicides of the invention and their combinations were evaluated on weeds such as Viola arvensis (weed code—VIOAR), Veronica persica (weed code—VERPE), Papaver rhoeas (weed code: PAPRH), Galium aparine (weed code—GALAP), Matricaria recutita weed code—MATCH), Veronica hederifolia (weed code—VERHE) and Viola arvensis (weed code—VIOAR.). The trial was carried out in Randomized Complete Block (RCB) method, all field trials were conducted using this method. Each trial were replicated four times and conducted under GEP guidelines. Application volumes were varied for each mixture. Such field trials were carried out at various locations so as to generate independent data, the locations were chosen randomly across European nations. Bensulfuron methyl and Metsulfuron methyl and selected herbicides were sprayed according to their recommended dosage.
Further field trials were carried out to test the synergy of the combination bensulfuron methyl, metsulfuron methyl and synthetic auxin fluroxypyr. The field trials were carried out at various locations in Europe during spring. […] The target weed was Papaver rhoeas (weed code—PAPRH) and the results are recorded in the table below:
Field trials were carried out test the synergy of the combination bensulfuron methyl, metsulfuron methyl, and synthetic auxin 2,4-D. The field trials were carried out at various locations in Europe during spring. […] The target weed were Senecio vulgaris (weed code—SENVU), Rapistrum rugosum (weed code—RASRU), Papaver rhoeas (weed code—PAPRH), Viola arvensis (Weed code—VIOAR), Roemeria hybrida (Weed code—is ROEHY), Galium aparine (Weed code—GALAP) and the results are recorded in the tables 3 and 4 below: […]

[5] = test system: Rapistrum rugosum (weed code—RASRU); test: Field trial, weed control of Rapistrum rugosum in wheat; conditions: in Triticum aesti
Procedure: as §1, §2, §3

[6] = test system: Galium aparine (Weed code—GALAP); test: Field trial, weed control of Galium aparine in wheat; conditions: in Triticum aesti, 16 DAA, dose 0.08 g (bensulfuron methyl + metsulfuron methyl)
Procedure: (§5) In the Colby method, the expected (or predicted) response of a combination of herbicides is calculated by taking the product of the observed response for each individual component of the combination when applied alone divided by 100 and subtracting this value from the sum of the observed response for each component when applied alone. An unexpected enhancement in efficacy of the combination is then determined by comparing the observed response of the combination to the expected (or predicted) response as calculated from the observed response of each individual component alone. If the observed response of the combination is greater than the expected (or predicted) response, or stated conversely, if the difference between the observed and expected response is greater than zero, then the combination is said to be synergistic or unexpectedly effective.
(§6) The trial was carried out in Randomized Complete Block (RCB) method, all field trials were conducted using this method. Each trial were replicated four times and conducted under GEP guidelines. Application volumes were varied for each mixture.

weeds in general (TTTTT) = test: Field trial, control of weeds in general in wheat; conditions: in Triticum aesti, dose 50 g + 4 g (bensulfuron methyl + metsulfuron methyl); for % Weed control TTTTT, Actual: 12 DAA
Procedure: as §5, §6

[7] = test system: Veronica persica (weed code—VERPE); test: Field trial, weed control of Veronica persica in wheat; conditions: in Triticum aesti, dose 50 g + 4 g (bensulfuron methyl + metsulfuron methyl), 125 g (fluroxypyr), 50 g + 4 g + 125 g (mix)
Procedure: as §1, §4

[8] = Table 2, PAPRH, dose bensulfuron methyl 50 g, metsulfuron methyl 4 g, fluroxypyr 125 g, mix 50 g + 4 g + 125 g
[9] = Table 2, second PAPRH column pair, dose bensulfuron methyl 50 g, metsulfuron methyl 4 g, fluroxypyr 125 g, mix 50 g + 4 g + 125 g

`O=C(O)COc1ccc(Cl)cc1Cl` [2,4D dimethylamine salt, 2,4-Dichlorophenoxy acetic acid] was tested, and the “% Weed control VIOAR, Actual” value ([1]; Table 4, 12 DAA, dose 0.1 Kg/ha (bensulfuron methyl + metsulfuron methyl), 2.6 l/ha (2,4D dimethylamine salt), 0.1 Kg/ha + 2.6 l/ha (mix)) was 18.8%, the “% Weed control ROEHY, Actual” value [2] was 37.5% and the “% Weed control SENVU, Actual” value [3] was 62.5%. For the same compound, the “% Weed control PAPRH, Actual” value ([4]; Table 3, dose 0.1 Kg/ha (bensulfuron methyl + metsulfuron methyl), 2.6 l/ha (2,4D dimethylamine salt), 2.6 l/ha + 0.1 Kg/ha (mix)) was 37.5% and the “% Weed control RASRU, Actual” value ([5]; Table 3, 12 DAA, dose 0.1 Kg/ha (bensulfuron methyl + metsulfuron methyl), 2.6 l/ha (2,4D dimethylamine salt), 2.6 l/ha + 0.1 Kg/ha (mix)) was 32.4%.

`COC(=O)c1ccccc1CS(=O)(=O)NC(=O)Nc1nc(OC)cc(OC)n1` [Bensulfuron methyl, methyl α-[(4,6-dimethoxypyrimidin-2-ylcarbamoyl)sulfamoyl]-o-toluate] was tested, and the “% Weed control PAPRH, Actual” value [4, 8] was 50% and the “% Weed control PAPRH, Actual” value [4, 9] was 50%.

In the case of `O=C(Nc1ccc(F)cc1F)c1cccnc1Oc1cccc(C(F)(F)F)c1` [Diflufenican, 2′,4′-difluoro-2-(α,α,α-trifluoro-m-tolyloxy)nicotinanilide], the “% Weed control GALAP, Actual” value ([6]; Table 7, first column pair, 0.05 g (diflufenican), 0.08 g + 0.05 g (mix)) is reported as 13%, the “% Weed control GALAP, Actual” value ([6]; Table 7, second column pair, 0.08 g (diflufenican), 0.08 g + 0.08 g (mix)) is reported as 20% and the “% Weed control TTTTT, Actual” value (weeds in general (TTTTT); Table 6, first column pair, 0.12 g (diflufenican), 50 g + 4 g + 0.12 g (mix)) is reported as 11.7%. The “% Weed control TTTTT, Actual” value (weeds in general (TTTTT); Table 6, second column pair, 0.16 g (diflufenican), 50 g + 4 g + 0.16 g (mix)) was 3.0% and the “% Weed control TTTT, Actual” value (weeds in general (TTTTT); Table 6, third column pair, 12 DAA T, 0.16 g (diflufenican), 50 g + 4 g + 0.16 g (mix)) was 15%.

`Nc1c(Cl)c(F)nc(OCC(=O)O)c1Cl` [Fluroxypyr, 4-amino-3,5-dichloro-6-fluoro-2-pyridyloxyacetic acid] was tested, and the “% Weed control VIOAR, Actual” value ([1]; 20 DAA, dose 50 g + 4 g (bensulfuron methyl + metsulfuron methyl), 125 g (fluroxypyr), 50 g + 4 g + 125 g (mix)) was 31%, the “% Weed control VIOAR, Actual” value ([1]; 57 DAA, dose 50 g + 4 g (bensulfuron methyl + metsulfuron methyl), 125 g (fluroxypyr), 50 g + 4 g + 125 g (mix)) was 28% and the “% Weed control PAPRH, Actual” value [4, 8] was 28%. For the same compound, the “% Weed control PAPRH, Actual” value [4, 9] was 79%, the “% Weed control VERPE, Actual” value ([7]; 20 DAA) was 51% and the “% Weed control VERPE, Actual” value ([7]; 57 DAA) was 55%.

`Cc1cc(Cl)ccc1OCC(=O)O` [MCPA dimethylamine salt, 4-chloro-2-methylphenoxy acetic acid] was tested, and the “% Weed control PAPRH, Actual” value ([4]; Table 5, dose 0.1 kg/ha A (bensulfuron methyl + metsulfuron methyl), 4 l/ha (MCPA dimethylamine salt), 0.1 kg/ha A + 4 l/ha (mix)) was 63.8%, the “% Weed control RASRU, Actual” value ([5]; Table 5, 12 DAA, dose 0.1 kg/ha A (bensulfuron methyl + metsulfuron methyl), 4 l/ha (MCPA dimethylamine salt), 0.1 kg/ha A + 4 l/ha (mix)) was 34.8% and the “% Weed control RASRU, Actual” value ([5]; Table 5, 56 DAA, dose 0.1 kg/ha A (bensulfuron methyl + metsulfuron methyl), 4 l/ha (MCPA dimethylamine salt), 0.1 kg/ha A + 4 l/ha (mix)) was 88.3%.

For `COC(=O)c1ccccc1S(=O)(=O)NC(=O)Nc1nc(C)nc(OC)n1` [Metsulfuron methyl, methyl 2-(4-methoxy-6-methyl-1,3,5-triazin-2-ylcarbamoylsulfamoyl)benzoate], the “% Weed control PAPRH, Actual” value [4, 8] was 48% and the “% Weed control PAPRH, Actual” value [4, 9] was 48.8%.
